What was measured:
[1] = system: intraperitoneal SKOV3-luc ovarian tumor; test: Biodistribution after i.p. injection, xenograft model III; type: in vivo, mice; details: up to 72 h
Protocol: PEG^5000-CA8 (polymer 7) nanoparticles biodistribution after i.p. injection in intraperitoneal SKOV3-luc ovarian tumor bearing mice was investigated. Mice were injected i.p. with free DiD or DiD-loaded PEG^5000-CA8 nanoparticles. […] At 72 h, the peritoneal cavity was exposed and scanned with the Kodak imaging station, displaying DiD-labeled PEG^5000-CA8 nanoparticles localization on the surface of peritoneal tumor nodules (FIGS. 38A-38B).

[2] = system: SKOV-3 ovarian cancer xenografts; test: Size effect on biodistribution, NIR imaging, xenograft model II; set-up: species or system nude mice; details: in vivo NIR imaging
Protocol: To study the effects of particle size on the in vivo biodistribution of nanoparticles, the same concentration of DiD (a hydrophobic near infra-red (NIR) cyanine dye, 1 mg/mL) was co-loaded with PTX (4 mg/mL, 4 mg/mL and 3 mg/mL, respectively) into 20 mg/mL micelle solutions of PEG^2000-CA4, PEG^5000-CA8 and PEG^3000-CA4, to form three fluorescence labeled micelle preparations with distinct sizes of 17 nm, 64 nm and 154 nm, respectively (FIG. 35A). Each of these three sizes of DiD-loaded micelles was incubated with Raw 264.7 macrophage cells for 2 h. The cells were then washed three times with PBS, fixed with 70% ethanol and observed under confocal fluorescence microscope. […] NIR fluorescent imaging was used to evaluate the in vivo biodistribution of the three micelles with different sizes in nude mice bearing the SKOV-3 ovarian cancer xenografts (subcutaneous and intraperitoneal implants). The mice were injected via the tail vein with the same volume of the above three PTX-DiD loaded micelle preparations in PBS. Ex vivo imaging of the excised organs and tumors were performed at 24 h after injection. […] The in vivo NIR images of a tumor bearing mouse treated with the DiD-PTX-PEG^5000CA8 was recorded over time (FIG. 35D). The accumulation of the DiD loaded micelles at the tumor site via the EPR effect began at 2 h after injection and continued to increase over the 24 h period.

CCCCCCCCCCCCCCCCCCN1C(=CC=CC=CC2=[N+](CCCCCCCCCCCCCCCCCC)c3ccccc3C2(C)C)C(C)(C)c2ccccc21.[O-][Cl+3]([O-])([O-])[O-] [DiD, 1,1′-dioctadecyl-3,3,3′,3′-tetramethylindo-dicarbocyanine perchlorate]
fluorescence distribution after i.p. injection [1]: declined to a level not distinguishable from background auto-fluorescence at 72 h
tumor targeting [2]: no tumor targeting was found
